Reference: US20030148518A1, “Method for mass propogation of podophyllum hexandrum royle using embryo culture technique” (priority 2001, published 2003)

Experiments:
[1] = tested on: Podophyllum hexandrum emblings; assay: True leaf emergence after embling development and field transfer; conditions: media supplemented with 2.5 μM Gibberellic acid; after 12 weeks of field transfer
Protocol: (§1) To describe in detail, the method comprises collection of mature pods of P. hexandrum Royle from their natural habitats in the Western Himalayas at an altitude ranging from 2700 m-3500 m above mean sea level during the last week of August and first week of September. Immediately after collection, the seeds were separated from the pulp. Prior to disinfection with 0.1% Bavistin and streptomycin sulphate (0.1%) for 15 minutes, followed by a thorough washing of seeds. After a 1 minute dip in 70% alcohol and surface sterilization in 0.1% mercuric chloride for 7 minutes, all traces of mercuric chloride were finally washed off by 4-5 rinses in sterile distilled water. The surface sterilized seeds were then dissected by a sharp excision with a scalpel blade at the base of the microplyar lobe and embryos were carefully squeezed out of their micropylar groove. The embryos were cultured on B-5 (Gamborg et al., 1968) medium supplemented with 3% sucrose of pH 5.8 adjusted with 1N KOH and HCl prior to the addition of agar (0.8%) and were finally sterilized at […] for 20 minutes. All the cultures were maintained in this medium for one week at 25±2° C. in dark for embryo germination. […]

[2] = tested on: Podophyllum hexandrum zygotic embryos; assay: Germination of excised zygotic embryos cultured on different media supplemented with Gibberellic acid; conditions: 2.5 μM Gibberellic acid in different media (B5, MS, WPM); excised zygotic embryos of different regimes
Protocol: as §1

## C=C1C[C@]23C[C@@]1(O)CC[C@H]2[C@@]12C=C[C@H](O)[C@@](C)(C(=O)O1)[C@H]2[C@@H]3C(=O)O [Gibberellic acid]
[1]
  true leaf emergence: no true leaf emergence was recorded
[2]
  embryo germination: Germination was evoked in all the media
